Measurements published in paper PMC9921564, “Novel Indole-Containing Hybrids Derived from Millepachine: Synthesis, Biological Evaluation and Antitumor Mechanism Study” (Molecules, 2023).

What was measured:
[1] = test system: HepG2 (human liver carcinoma cell line); test: CCK-8 antiproliferative assay, HepG2; assay type: cell-based; conditions: 48 h, read-out: IC50, Mean ± SE, HepG2
caspase 3 = caspase 3 activity evaluation; assay type: cell-based, human; conditions: A549, 10, 20 and 50 nM
Protocol: To further elucidate the mechanism of cell death caused by the cytotoxicity of compound 14b, the Hoechst 33342 fluorochrome was used to observe the nucleus morphology, Annexin V-FITC double staining was performed to distinguish the apoptotic cells, and the caspase 3 colorimetric assay kit was used to detect the activity of caspase 3. […] At the early stage of apoptosis, different types of cells turn phosphatidylserine (PS) out toward the cell surface, that is, the outside of the cell membrane, which can be selectively marked with Annexin V. Additionally, in the late stage of apoptosis, the integrity of cell membrane is lost and can be stained with PI. […] Finally, considering the activation of caspase 3 is a central event in the process of apoptosis, the activity of caspase 3 was also evaluated.
Figure 4 Induction of apoptosis by compound 14b. […] (B) The percentages of cells in each apoptosis quantitated by flow cytometry through Annexin V-FITC double staining analysis. […] (C) The caspase 3 activity detected by the caspase 3 colorimetric assay kit after A549 cells were treated with compound 14b at concentrations of 10, 20 and 50 nM for 24 h. […]
samples were fixed in ice-cold 70% ethanol overnight and removed with ice-cold PBS for three times. […] After the incubation, the prepared cell samples were immediately analyzed. […]

For `COc1ccc(C(=O)c2ccc3c(ccn3C)c2)c2c1C=CC(C)(C)O2` [compound 14b, (5-methoxy-2,2-dimethyl-2H-chromen-8-yl)(1-methyl-1H-indol-5-yl)methanone], the IC50 [1] was 74 ± 13 nM and the “activity of caspase 3” value (caspase 3) was “significantly activated and increased in a dose- and time-dependent manner”.
